Values of other authors as cited in patent US20070105756A1 (priority 2005, published 2007).

System: sensitive individuals
Conditions: oral route

With `NCCc1c[nH]cn1` [histamine] as the compound, how does the “histamine concentration known to be biologically active” value read?
Its value is over 5 nM.
